Assay results from PubChem BioAssay (NCI).
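Dose response: 5 concentrations. Exposure: 48 h. Format: 96-well plates. Endpoint: linear interpolation; highest concentration if not reached. GI50 = concentration required for 50% inhibition of growth. TGI is the concentration that stops growth completely.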

Key:
Assay in all cases: NCI tumour cell line growth inhibition, 48 h
SF-268 CNS = tested on: SF-268 CNS
HOP-92 NSCLC = tested on: HOP-92 NSCLC
BT-549 breast = tested on: BT-549 breast
HCC-2998 colon = tested on: HCC-2998 colon
SNB-75 CNS = tested on: SNB-75 CNS
HOP-62 NSCLC = tested on: HOP-62 NSCLC
MALME-3M melanoma = tested on: MALME-3M melanoma
A498 renal = tested on: A498 renal
TK-10 renal = tested on: TK-10 renal
SK-MEL-2 melanoma = tested on: SK-MEL-2 melanoma
CCRF-CEM leukemia = tested on: CCRF-CEM leukemia
OVCAR-5 ovarian = tested on: OVCAR-5 ovarian
MDA-MB-231 breast = tested on: MDA-MB-231 breast
COLO 205 colon = tested on: COLO 205 colon
MCF7 breast = tested on: MCF7 breast
EKVX NSCLC = tested on: EKVX NSCLC
RPMI-8226 leukemia = tested on: RPMI-8226 leukemia
UO-31 renal = tested on: UO-31 renal
SK-OV-3 ovarian = tested on: SK-OV-3 ovarian
DU-145 prostate = tested on: DU-145 prostate
U251 CNS = tested on: U251 CNS
OVCAR-8 ovarian = tested on: OVCAR-8 ovarian
SF-539 CNS = tested on: SF-539 CNS
HS 578T breast = tested on: HS 578T breast
NCI-H23 lung = tested on: NCI-H23 lung
NCI-H226 lung = tested on: NCI-H226 lung
UACC-62 melanoma = tested on: UACC-62 melanoma
M14 melanoma = tested on: M14 melanoma
A549 NSCLC = tested on: A549 NSCLC
NCI-H522 lung = tested on: NCI-H522 lung
SNB-19 CNS = tested on: SNB-19 CNS
MDA-MB-435 = tested on: MDA-MB-435
ACHN renal = tested on: ACHN renal
OVCAR-4 ovarian = tested on: OVCAR-4 ovarian
KM12 colon = tested on: KM12 colon
K-562 leukemia = tested on: K-562 leukemia
RXF 393 renal = tested on: RXF 393 renal
SN12C renal = tested on: SN12C renal
HCT-116 colon = tested on: HCT-116 colon
786-0 renal = tested on: 786-0 renal
CAKI-1 renal = tested on: CAKI-1 renal
PC-3 prostate = tested on: PC-3 prostate
NCI-H460 lung = tested on: NCI-H460 lung
SW-620 colon = tested on: SW-620 colon
HT29 colon = tested on: HT29 colon
SK-MEL-5 melanoma = tested on: SK-MEL-5 melanoma
HL-60(TB) leukemia = tested on: HL-60(TB) leukemia
HCT-15 colon = tested on: HCT-15 colon
NCI/ADR-RES ovarian = tested on: NCI/ADR-RES ovarian
IGROV1 ovarian = tested on: IGROV1 ovarian
MOLT-4 leukemia = tested on: MOLT-4 leukemia
OVCAR-3 ovarian = tested on: OVCAR-3 ovarian
SK-MEL-28 melanoma = tested on: SK-MEL-28 melanoma
LOX IMVI melanoma = tested on: LOX IMVI melanoma
UACC-257 melanoma = tested on: UACC-257 melanoma
SR leukemia = tested on: SR leukemia
SF-295 CNS = tested on: SF-295 CNS

With `N#Cc1c(NC(=O)NCc2ccccc2)sc2c1CCCC2` as the molecule, how does the GI50 (SF-268 CNS) read?
Its GI50 is 1820 nM.

And the TGI (SF-268 CNS)?
The TGI was > 100000 nM.

And the GI50 (HOP-92 NSCLC)?
Its GI50 is 1790 nM.

What about the TGI (HOP-92 NSCLC) of the same molecule?
Its TGI is 71000 nM.

What about the GI50 (BT-549 breast) of the same molecule?
Its GI50 is 1250 nM.

What about the TGI (BT-549 breast) of the same molecule?
The TGI was > 100000 nM.

And the GI50 (HCC-2998 colon)?
Its GI50 is 1720 nM.

And the TGI (HCC-2998 colon)?
Its TGI is > 100000 nM.

And the GI50 (SNB-75 CNS)?
Its GI50 is 249 nM.

What about the TGI (SNB-75 CNS) of the same molecule?
The TGI was 36000 nM.

And the GI50 (HOP-62 NSCLC)?
Its GI50 is 1510 nM.

And the TGI (HOP-62 NSCLC)?
The TGI was > 74800 nM.

And the GI50 (MALME-3M melanoma)?
Its GI50 is 598 nM.

And the TGI (MALME-3M melanoma)?
Its TGI is > 100000 nM.

What about the GI50 (A498 renal) of the same molecule?
The GI50 was 236 nM.

And the TGI (A498 renal)?
Its TGI is 1130 nM.

What about the GI50 (TK-10 renal) of the same molecule?
The GI50 was 14600 nM.

And the TGI (TK-10 renal)?
Its TGI is > 100000 nM.

What about the GI50 (SK-MEL-2 melanoma) of the same molecule?
Its GI50 is 5080 nM.

What about the TGI (SK-MEL-2 melanoma) of the same molecule?
The TGI was > 100000 nM.

What about the GI50 (CCRF-CEM leukemia) of the same molecule?
Its GI50 is 459 nM.

And the TGI (CCRF-CEM leukemia)?
Its TGI is > 100000 nM.

What about the GI50 (OVCAR-5 ovarian) of the same molecule?
Its GI50 is 2390 nM.

And the TGI (OVCAR-5 ovarian)?
Its TGI is > 100000 nM.

What about the GI50 (MDA-MB-231 breast) of the same molecule?
Its GI50 is 1730 nM.

What about the TGI (MDA-MB-231 breast) of the same molecule?
The TGI was > 42400 nM.

And the GI50 (COLO 205 colon)?
Its GI50 is 593 nM.

And the TGI (COLO 205 colon)?
Its TGI is > 28900 nM.

And the GI50 (MCF7 breast)?
Its GI50 is 363 nM.

What about the TGI (MCF7 breast) of the same molecule?
The TGI was > 100000 nM.

And the GI50 (EKVX NSCLC)?
Its GI50 is 2000 nM.

What about the TGI (EKVX NSCLC) of the same molecule?
Its TGI is > 100000 nM.

And the GI50 (RPMI-8226 leukemia)?
Its GI50 is 538 nM.

And the TGI (RPMI-8226 leukemia)?
Its TGI is > 100000 nM.

And the GI50 (UO-31 renal)?
Its GI50 is 740 nM.

What about the TGI (UO-31 renal) of the same molecule?
The TGI was > 100000 nM.

What about the GI50 (SK-OV-3 ovarian) of the same molecule?
The GI50 was 9200 nM.

What about the TGI (SK-OV-3 ovarian) of the same molecule?
The TGI was > 100000 nM.

What about the GI50 (DU-145 prostate) of the same molecule?
Its GI50 is 801 nM.

And the TGI (DU-145 prostate)?
Its TGI is > 33500 nM.

And the GI50 (U251 CNS)?
The GI50 was 660 nM.

What about the TGI (U251 CNS) of the same molecule?
The TGI was > 81700 nM.

What about the GI50 (OVCAR-8 ovarian) of the same molecule?
The GI50 was 2290 nM.

What about the TGI (OVCAR-8 ovarian) of the same molecule?
Its TGI is > 100000 nM.

And the GI50 (SF-539 CNS)?
The GI50 was 370 nM.

And the TGI (SF-539 CNS)?
The TGI was 4680 nM.

And the GI50 (HS 578T breast)?
Its GI50 is 404 nM.

And the TGI (HS 578T breast)?
The TGI was > 100000 nM.

And the GI50 (NCI-H23 lung)?
The GI50 was 1180 nM.

What about the TGI (NCI-H23 lung) of the same molecule?
Its TGI is > 26300 nM.

What about the GI50 (NCI-H226 lung) of the same molecule?
The GI50 was 1300 nM.

And the TGI (NCI-H226 lung)?
Its TGI is > 41300 nM.

What about the GI50 (UACC-62 melanoma) of the same molecule?
Its GI50 is 455 nM.

What about the TGI (UACC-62 melanoma) of the same molecule?
The TGI was > 100000 nM.

What about the GI50 (M14 melanoma) of the same molecule?
Its GI50 is 421 nM.

And the TGI (M14 melanoma)?
Its TGI is > 100000 nM.

And the GI50 (A549 NSCLC)?
Its GI50 is 731 nM.

And the TGI (A549 NSCLC)?
The TGI was > 100000 nM.

What about the GI50 (NCI-H522 lung) of the same molecule?
Its GI50 is 559 nM.

What about the TGI (NCI-H522 lung) of the same molecule?
Its TGI is > 100000 nM.

And the GI50 (SNB-19 CNS)?
The GI50 was 675 nM.

And the TGI (SNB-19 CNS)?
The TGI was > 100000 nM.

What about the GI50 (MDA-MB-435) of the same molecule?
Its GI50 is 215 nM.

What about the TGI (MDA-MB-435) of the same molecule?
Its TGI is 595 nM.

What about the GI50 (ACHN renal) of the same molecule?
Its GI50 is 677 nM.

And the TGI (ACHN renal)?
The TGI was > 100000 nM.

And the GI50 (OVCAR-4 ovarian)?
The GI50 was 1780 nM.

What about the TGI (OVCAR-4 ovarian) of the same molecule?
The TGI was > 100000 nM.

And the GI50 (KM12 colon)?
Its GI50 is 425 nM.

And the TGI (KM12 colon)?
The TGI was > 100000 nM.

And the GI50 (K-562 leukemia)?
Its GI50 is 430 nM.

What about the TGI (K-562 leukemia) of the same molecule?
Its TGI is > 100000 nM.

And the GI50 (RXF 393 renal)?
The GI50 was 481 nM.

And the TGI (RXF 393 renal)?
The TGI was 14100 nM.

And the GI50 (SN12C renal)?
The GI50 was 813 nM.

And the TGI (SN12C renal)?
The TGI was > 100000 nM.

What about the GI50 (HCT-116 colon) of the same molecule?
The GI50 was 533 nM.

And the TGI (HCT-116 colon)?
The TGI was > 100000 nM.

What about the GI50 (786-0 renal) of the same molecule?
Its GI50 is 822 nM.

What about the TGI (786-0 renal) of the same molecule?
The TGI was > 100000 nM.

And the GI50 (CAKI-1 renal)?
The GI50 was 776 nM.

What about the TGI (CAKI-1 renal) of the same molecule?
Its TGI is > 100000 nM.

And the GI50 (PC-3 prostate)?
The GI50 was 559 nM.

What about the TGI (PC-3 prostate) of the same molecule?
The TGI was > 100000 nM.

And the GI50 (NCI-H460 lung)?
The GI50 was 407 nM.

What about the TGI (NCI-H460 lung) of the same molecule?
Its TGI is > 100000 nM.

What about the GI50 (SW-620 colon) of the same molecule?
The GI50 was 388 nM.

What about the TGI (SW-620 colon) of the same molecule?
The TGI was > 100000 nM.

And the GI50 (HT29 colon)?
Its GI50 is 392 nM.

And the TGI (HT29 colon)?
Its TGI is > 100000 nM.

What about the GI50 (SK-MEL-5 melanoma) of the same molecule?
The GI50 was 439 nM.

And the TGI (SK-MEL-5 melanoma)?
Its TGI is 6930 nM.

And the GI50 (HL-60(TB) leukemia)?
The GI50 was 300 nM.

What about the TGI (HL-60(TB) leukemia) of the same molecule?
The TGI was 3130 nM.

What about the GI50 (HCT-15 colon) of the same molecule?
The GI50 was 443 nM.

And the TGI (HCT-15 colon)?
The TGI was > 100000 nM.

What about the GI50 (NCI/ADR-RES ovarian) of the same molecule?
Its GI50 is 424 nM.

And the TGI (NCI/ADR-RES ovarian)?
Its TGI is > 34100 nM.

What about the GI50 (IGROV1 ovarian) of the same molecule?
Its GI50 is 749 nM.

What about the TGI (IGROV1 ovarian) of the same molecule?
Its TGI is > 100000 nM.

What about the GI50 (MOLT-4 leukemia) of the same molecule?
Its GI50 is 487 nM.

What about the TGI (MOLT-4 leukemia) of the same molecule?
Its TGI is > 100000 nM.

And the GI50 (OVCAR-3 ovarian)?
Its GI50 is 344 nM.

What about the TGI (OVCAR-3 ovarian) of the same molecule?
The TGI was 1870 nM.

What about the GI50 (SK-MEL-28 melanoma) of the same molecule?
Its GI50 is 6370 nM.

And the TGI (SK-MEL-28 melanoma)?
Its TGI is > 100000 nM.

And the GI50 (LOX IMVI melanoma)?
Its GI50 is 643 nM.

What about the TGI (LOX IMVI melanoma) of the same molecule?
Its TGI is > 100000 nM.

What about the GI50 (UACC-257 melanoma) of the same molecule?
The GI50 was > 71000 nM.

What about the TGI (UACC-257 melanoma) of the same molecule?
The TGI was > 100000 nM.

And the GI50 (SR leukemia)?
The GI50 was 350 nM.

What about the TGI (SR leukemia) of the same molecule?
The TGI was > 100000 nM.

What about the GI50 (SF-295 CNS) of the same molecule?
Its GI50 is 549 nM.

What about the TGI (SF-295 CNS) of the same molecule?
Its TGI is 37700 nM.
